Experimental data published in article PMC7416039 (Pharmacology Research & Perspectives, 2020).
Blank lines part the entries; values can stand above or below the compound they belong to.

How the values were obtained:
[1] = target: T1, human aldehyde dehydrogenase 2 (ALDH2) (Homo sapiens, UniProt P05091); experiment: Reversible inhibition of ALDH2; format: biochemical
T1 sequence (P05091 18-517): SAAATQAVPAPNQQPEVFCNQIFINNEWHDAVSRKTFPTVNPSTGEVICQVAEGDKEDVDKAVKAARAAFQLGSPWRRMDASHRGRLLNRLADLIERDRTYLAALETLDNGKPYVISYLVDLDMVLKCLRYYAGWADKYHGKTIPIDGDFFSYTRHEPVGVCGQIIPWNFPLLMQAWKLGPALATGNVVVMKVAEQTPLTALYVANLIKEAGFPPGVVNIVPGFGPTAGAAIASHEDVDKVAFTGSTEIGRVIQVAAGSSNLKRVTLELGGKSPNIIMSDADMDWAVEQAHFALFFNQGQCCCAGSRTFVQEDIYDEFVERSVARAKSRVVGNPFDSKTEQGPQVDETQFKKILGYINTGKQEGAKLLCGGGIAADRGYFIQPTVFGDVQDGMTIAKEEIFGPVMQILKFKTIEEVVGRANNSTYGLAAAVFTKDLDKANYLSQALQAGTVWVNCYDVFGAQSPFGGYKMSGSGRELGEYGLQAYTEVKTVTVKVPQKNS

CYP2C8 [2] = target: T2, CYP2C8 (Homo sapiens, UniProt P10632); experiment: Direct inhibition of CYP isoforms in HLM
T2 sequence (P10632 1-490): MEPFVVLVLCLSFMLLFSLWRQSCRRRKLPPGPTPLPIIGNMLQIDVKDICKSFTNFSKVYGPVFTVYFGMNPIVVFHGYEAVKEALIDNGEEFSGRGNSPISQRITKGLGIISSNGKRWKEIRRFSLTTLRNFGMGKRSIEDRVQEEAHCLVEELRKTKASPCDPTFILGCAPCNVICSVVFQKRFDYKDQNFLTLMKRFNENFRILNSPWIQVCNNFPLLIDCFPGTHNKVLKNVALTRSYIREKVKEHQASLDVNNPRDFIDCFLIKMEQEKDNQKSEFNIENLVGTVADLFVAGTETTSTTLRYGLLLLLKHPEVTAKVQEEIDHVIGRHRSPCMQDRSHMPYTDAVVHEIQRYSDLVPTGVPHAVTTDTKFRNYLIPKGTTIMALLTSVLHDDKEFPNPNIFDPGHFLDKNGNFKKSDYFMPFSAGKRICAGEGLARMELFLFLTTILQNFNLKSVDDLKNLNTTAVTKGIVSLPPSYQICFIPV

CYP2A6 [3] = target: T3, CYP2A6 (Homo sapiens, UniProt P11509); experiment: Direct inhibition of CYP isoforms in HLM
T3 sequence (P11509 1-494): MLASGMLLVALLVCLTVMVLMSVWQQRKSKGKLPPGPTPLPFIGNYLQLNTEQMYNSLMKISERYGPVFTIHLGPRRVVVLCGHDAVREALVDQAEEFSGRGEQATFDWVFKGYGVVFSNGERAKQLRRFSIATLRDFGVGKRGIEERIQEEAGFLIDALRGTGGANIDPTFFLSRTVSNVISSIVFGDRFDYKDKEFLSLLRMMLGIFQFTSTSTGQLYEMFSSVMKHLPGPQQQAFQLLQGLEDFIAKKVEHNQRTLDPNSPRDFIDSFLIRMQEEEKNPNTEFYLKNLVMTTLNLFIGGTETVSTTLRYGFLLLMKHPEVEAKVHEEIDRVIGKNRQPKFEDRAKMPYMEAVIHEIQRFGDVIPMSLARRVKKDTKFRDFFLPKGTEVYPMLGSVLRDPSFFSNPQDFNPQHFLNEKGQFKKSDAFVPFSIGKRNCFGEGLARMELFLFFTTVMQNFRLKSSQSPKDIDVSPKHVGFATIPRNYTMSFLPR

[4] = Metabolism of secnidazole in human liver microsomes; format: in vitro ADME; conditions: human, human liver microsomes, pH 7.4
human liver microsomes = experiment: as above; format: in vitro ADME
CYP1A2 [5] = target: T4, CYP1A2 (Homo sapiens, UniProt P05177); experiment: Time-dependent inhibition of CYP isoforms in HLM
T4 sequence (P05177 1-516): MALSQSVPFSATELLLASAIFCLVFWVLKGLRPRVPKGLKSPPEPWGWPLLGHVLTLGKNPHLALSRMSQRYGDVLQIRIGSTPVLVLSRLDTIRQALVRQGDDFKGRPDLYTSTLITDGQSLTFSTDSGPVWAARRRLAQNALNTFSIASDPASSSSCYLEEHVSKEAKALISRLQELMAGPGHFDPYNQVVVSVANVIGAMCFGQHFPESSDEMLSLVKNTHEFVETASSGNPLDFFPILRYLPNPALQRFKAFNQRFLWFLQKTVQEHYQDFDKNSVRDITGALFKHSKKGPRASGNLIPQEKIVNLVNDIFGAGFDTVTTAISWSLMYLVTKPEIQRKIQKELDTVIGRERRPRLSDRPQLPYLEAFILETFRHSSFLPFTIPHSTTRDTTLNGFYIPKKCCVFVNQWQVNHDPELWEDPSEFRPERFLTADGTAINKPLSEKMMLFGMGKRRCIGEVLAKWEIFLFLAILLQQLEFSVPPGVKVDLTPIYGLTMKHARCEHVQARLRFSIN

CYP2C8 [6] = target: T2, CYP2C8; experiment: Time-dependent inhibition of CYP isoforms in HLM
[7] = target: T1, human aldehyde dehydrogenase 2 (ALDH2); experiment: Time-dependent inhibition of ALDH2; format: biochemical; conditions: for Time-dependent inhibition of ALDH2 (residual ALDH2 catalytic activity): 10 μmol/L secnidazole
CYP2D6 [8] = target: T5, CYP2D6 (Homo sapiens, UniProt P10635); experiment: Time-dependent inhibition of CYP isoforms in HLM
CYP2E1 [9] = target: T6, CYP2E1 (Homo sapiens, UniProt P05181); experiment: Direct inhibition of CYP isoforms in HLM
CYP2C9 [10] = target: T7, CYP2C9 (Homo sapiens, UniProt P11712); experiment: Direct inhibition of CYP isoforms in HLM
CYP2A6 [11] = target: T3, CYP2A6; experiment: Time-dependent inhibition of CYP isoforms in HLM
CYP1A2 [12] = target: T4, CYP1A2; experiment: Direct inhibition of CYP isoforms in HLM
[13] = test system: cDNA‐expressed human CYP enzymes (Supersomes); experiment: Metabolism of 1 μmol/L secnidazole by cDNA-expressed human CYP enzymes; format: in vitro ADME; conditions: 0-30 min
CYP2B6 [14] = target: T8, CYP2B6 (Homo sapiens, UniProt P20813); experiment: Time-dependent inhibition of CYP isoforms in HLM
T8 sequence (P20813 1-491): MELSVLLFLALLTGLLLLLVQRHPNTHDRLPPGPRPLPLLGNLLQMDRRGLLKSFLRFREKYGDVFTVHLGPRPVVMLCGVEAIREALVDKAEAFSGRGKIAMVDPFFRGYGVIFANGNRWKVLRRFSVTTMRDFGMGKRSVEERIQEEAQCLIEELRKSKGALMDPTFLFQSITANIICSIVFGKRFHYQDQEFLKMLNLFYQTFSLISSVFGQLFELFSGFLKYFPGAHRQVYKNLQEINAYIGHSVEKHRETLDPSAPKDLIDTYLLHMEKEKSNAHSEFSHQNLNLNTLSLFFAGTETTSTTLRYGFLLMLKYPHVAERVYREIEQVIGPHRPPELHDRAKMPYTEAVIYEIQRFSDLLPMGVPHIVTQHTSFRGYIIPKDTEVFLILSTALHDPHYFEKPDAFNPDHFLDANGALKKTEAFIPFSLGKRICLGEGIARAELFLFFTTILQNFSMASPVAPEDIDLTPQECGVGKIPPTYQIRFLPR

CYP2C19 [15] = target: T9, CYP2C19 (Homo sapiens, UniProt P33261); experiment: Direct inhibition of CYP isoforms in HLM
CYP2D6 [16] = target: T5, CYP2D6; experiment: Direct inhibition of CYP isoforms in HLM
[17] = cited from earlier work
CYP2B6 [18] = target: T8, CYP2B6; experiment: Direct inhibition of CYP isoforms in HLM
[19] = Metabolism of secnidazole in human plasma in vitro; format: in vitro ADME
CYP2C19 [20] = target: T9, CYP2C19; experiment: Time-dependent inhibition of CYP isoforms in HLM
CYP2C9 [21] = target: T7, CYP2C9; experiment: Time-dependent inhibition of CYP isoforms in HLM
CYP2E1 [22] = target: T6, CYP2E1; experiment: Time-dependent inhibition of CYP isoforms in HLM

T5 sequence (P10635 whole entry, canonical isoform): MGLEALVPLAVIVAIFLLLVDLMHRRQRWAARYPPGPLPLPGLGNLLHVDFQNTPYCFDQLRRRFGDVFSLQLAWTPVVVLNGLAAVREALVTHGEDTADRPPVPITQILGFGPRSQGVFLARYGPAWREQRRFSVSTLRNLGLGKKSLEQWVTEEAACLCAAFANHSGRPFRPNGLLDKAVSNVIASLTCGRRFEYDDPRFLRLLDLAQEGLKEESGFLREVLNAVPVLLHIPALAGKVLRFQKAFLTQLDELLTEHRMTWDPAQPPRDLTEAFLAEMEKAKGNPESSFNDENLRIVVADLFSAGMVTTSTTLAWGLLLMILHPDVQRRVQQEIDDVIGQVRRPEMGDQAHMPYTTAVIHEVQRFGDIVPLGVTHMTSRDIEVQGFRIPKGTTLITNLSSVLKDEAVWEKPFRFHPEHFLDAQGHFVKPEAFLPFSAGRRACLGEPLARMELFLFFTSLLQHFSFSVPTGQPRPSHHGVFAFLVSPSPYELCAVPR
T7 sequence (P11712 whole entry, canonical isoform): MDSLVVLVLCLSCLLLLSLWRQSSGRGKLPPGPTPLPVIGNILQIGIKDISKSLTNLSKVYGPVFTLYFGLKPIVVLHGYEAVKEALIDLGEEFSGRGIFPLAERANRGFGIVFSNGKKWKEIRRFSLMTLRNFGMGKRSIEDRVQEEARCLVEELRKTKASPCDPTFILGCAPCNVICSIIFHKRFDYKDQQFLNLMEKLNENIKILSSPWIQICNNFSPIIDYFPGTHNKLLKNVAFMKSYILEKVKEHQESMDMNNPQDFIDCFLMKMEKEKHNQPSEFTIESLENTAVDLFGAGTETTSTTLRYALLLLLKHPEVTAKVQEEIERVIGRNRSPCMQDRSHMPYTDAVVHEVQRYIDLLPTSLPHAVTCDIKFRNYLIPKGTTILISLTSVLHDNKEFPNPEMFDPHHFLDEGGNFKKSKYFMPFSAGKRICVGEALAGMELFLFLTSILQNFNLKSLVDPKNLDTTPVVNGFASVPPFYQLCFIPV
T9 sequence (P33261 whole entry, canonical isoform): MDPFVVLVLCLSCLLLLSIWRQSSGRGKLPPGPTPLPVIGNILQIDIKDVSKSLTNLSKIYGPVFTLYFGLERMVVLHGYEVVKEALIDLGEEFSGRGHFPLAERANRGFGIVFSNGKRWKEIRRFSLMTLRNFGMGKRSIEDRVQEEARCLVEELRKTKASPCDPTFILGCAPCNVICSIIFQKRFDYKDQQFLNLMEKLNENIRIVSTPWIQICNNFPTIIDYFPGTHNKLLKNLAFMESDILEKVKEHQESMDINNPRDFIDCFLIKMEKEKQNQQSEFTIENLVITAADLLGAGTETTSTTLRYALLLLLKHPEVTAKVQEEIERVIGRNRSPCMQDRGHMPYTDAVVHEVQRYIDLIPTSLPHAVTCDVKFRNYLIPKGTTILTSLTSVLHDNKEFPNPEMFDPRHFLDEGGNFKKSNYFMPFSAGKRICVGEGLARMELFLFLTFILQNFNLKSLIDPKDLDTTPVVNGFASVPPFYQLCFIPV
T6 sequence (P05181 whole entry, canonical isoform): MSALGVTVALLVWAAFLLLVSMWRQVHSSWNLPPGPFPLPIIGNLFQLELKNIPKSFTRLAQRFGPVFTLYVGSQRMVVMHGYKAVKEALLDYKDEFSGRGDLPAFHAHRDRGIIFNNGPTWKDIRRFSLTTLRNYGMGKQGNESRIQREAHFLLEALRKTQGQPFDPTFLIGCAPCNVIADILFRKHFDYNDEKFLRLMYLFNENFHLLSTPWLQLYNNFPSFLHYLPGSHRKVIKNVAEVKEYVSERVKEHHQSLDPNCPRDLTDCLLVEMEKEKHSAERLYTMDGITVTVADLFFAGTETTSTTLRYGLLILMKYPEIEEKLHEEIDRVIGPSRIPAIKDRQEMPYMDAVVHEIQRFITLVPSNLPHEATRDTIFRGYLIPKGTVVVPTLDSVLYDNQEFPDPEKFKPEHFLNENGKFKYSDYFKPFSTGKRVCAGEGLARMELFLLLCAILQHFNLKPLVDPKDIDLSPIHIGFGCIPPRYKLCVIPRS

% Remaining ([1]; Daidzin 0.02 μmol/L): 106% | NADH ([1]; Daidzin 0.02 μmol/L): 132 nmol/min/mg | % Remaining ([1]; Daidzin 0.05 μmol/L): 102% | NADH ([1]; Daidzin 0.05 μmol/L): 127 nmol/min/mg | % Remaining ([1]; Daidzin 0.14 μmol/L): 93% | NADH ([1]; Daidzin 0.14 μmol/L): 117 nmol/min/mg | % Remaining ([1]; Daidzin 0.41 μmol/L): 96% | NADH ([1]; Daidzin 0.41 μmol/L): 120 nmol/min/mg | % Remaining ([1]; Daidzin 1.2 μmol/L): 76% | NADH ([1]; Daidzin 1.2 μmol/L): 95 nmol/min/mg | % Remaining ([1]; Daidzin 3.7 μmol/L): 57% | NADH ([1]; Daidzin 3.7 μmol/L): 72 nmol/min/mg | % Remaining ([1]; Daidzin 11 μmol/L): 27% | NADH ([1]; Daidzin 11 μmol/L): 33 nmol/min/mg | % Remaining ([1]; Daidzin 33 μmol/L): 16% | NADH ([1]; Daidzin 33 μmol/L): 20 nmol/min/mg | % Remaining ([1]; Daidzin 100 μmol/L): 7% | NADH ([1]; Daidzin 100 μmol/L): 8 nmol/min/mg
SMILES: O=c1c(-c2ccc(O)cc2)coc2cc(O[C@@H]3O[C@H](CO)[C@@H](O)[C@H](O)[C@H]3O)ccc12 [Daidzin]

IC50 (CYP2C8 [2]): > 5000 µM | IC50 (CYP2A6 [3]): > 5000 µM | Km [4]: > 6.4 mM | metabolism in HLMs (in words) (human liver microsomes; concentrations up to 6400 µmol/L): very low metabolism | Km (human liver microsomes; read-out: Km for M2 formation, rate linear with substrate concentration): > 6.4 mM | IC50 (CYP1A2 [5]): > 500 µM | IC50 [1]: 503 µM | % Remaining ([1]; secnidazole 0.2 μmol/L): 94% | NADH ([1]; secnidazole 0.2 μmol/L): 117 nmol/min/mg | % Remaining ([1]; secnidazole 0.5 μmol/L): 90% | NADH ([1]; secnidazole 0.5 μmol/L): 112 nmol/min/mg | % Remaining ([1]; secnidazole 1.4 μmol/L): 90% | NADH ([1]; secnidazole 1.4 μmol/L): 112 nmol/min/mg | % Remaining ([1]; secnidazole 4.1 μmol/L): 100% | NADH ([1]; secnidazole 4.1 μmol/L): 125 nmol/min/mg | % Remaining ([1]; secnidazole 12.3 μmol/L): 110% | NADH ([1]; secnidazole 12.3 μmol/L): 137 nmol/min/mg | % Remaining ([1]; secnidazole 37 μmol/L): 96% | NADH ([1]; secnidazole 37 μmol/L): 120 nmol/min/mg | % Remaining ([1]; secnidazole 111.1 μmol/L): 79% | NADH ([1]; secnidazole 111.1 μmol/L): 99 nmol/min/mg | % Remaining ([1]; secnidazole 333.3 μmol/L): 63% | NADH ([1]; secnidazole 333.3 μmol/L): 79 nmol/min/mg | % Remaining ([1]; secnidazole 1000 μmol/L): 32% | NADH ([1]; secnidazole 1000 μmol/L): 39 nmol/min/mg | IC50 (CYP2C8 [6]): > 500 µM | Time-dependent inhibition of ALDH2 (residual ALDH2 catalytic activity) ([7]; preincubation time 0.5): 104 | Time-dependent inhibition of ALDH2 (residual ALDH2 catalytic activity) ([7]; preincubation time 1): 103 | Time-dependent inhibition of ALDH2 (residual ALDH2 catalytic activity) ([7]; preincubation time 2): 101 | Time-dependent inhibition of ALDH2 (residual ALDH2 catalytic activity) ([7]; preincubation time 3): 104 | Time-dependent inhibition of ALDH2 (residual ALDH2 catalytic activity) ([7]; preincubation time 4): 101 | Time-dependent inhibition of ALDH2 (residual ALDH2 catalytic activity) ([7]; preincubation time 8): 110 | Time-dependent inhibition of ALDH2 (residual ALDH2 catalytic activity) ([7]; preincubation time 16): 113 | Time-dependent inhibition of ALDH2 (residual ALDH2 catalytic activity) ([7]; preincubation time 24): 131 | Time-dependent inhibition of ALDH2 (in words) ([7]; preincubated with ALDH2 enzyme and NAD+ from 1 to 24 minutes, secnidazole at 10 or 100 μmol/L): little or no time‐dependent inhibition | IC50 (CYP2D6 [8]): > 500 µM | IC50 (CYP2E1 [9]): > 5000 µM | IC50 (CYP2C9 [10]): > 5000 µM | IC50 (CYP2A6 [11]): > 500 µM | IC50 (CYP1A2 [12]): > 5000 µM | IC50 (CYP2B6 [14]): > 500 µM | IC50 (CYP2C19 [15]): 3870 µM | IC50 (CYP2D6 [16]): > 5000 µM | IC50 (CYP2B6 [18]): > 5000 µM | metabolism in human plasma in vitro [19]: no evidence of secnidazole metabolism | IC50 (CYP2C19 [20]): > 1000 µM | IC50 (CYP2C9 [21]): > 500 µM | IC50 (CYP2E1 [22]): > 500 µM
SMILES: Cc1ncc([N+](=O)[O-])n1CC(C)O (centres unmarked) [secnidazole]
direct inhibition (in words) (CYP2A6 [3]; HLM, CYP2A6): some clear concentration‐dependent inhibition at higher concentration | metabolism in cDNA‐expressed enzymes [13]: did not demonstrate conclusive evidence of any metabolism | direct inhibition (in words) (CYP2D6 [16]; HLM, CYP2D6): some clear concentration‐dependent inhibition at higher concentration | cumulative urinary excretion of free and conjugated secnidazole [17]: approximately 50% | direct inhibition (in words) (CYP2B6 [18]; HLM, CYP2B6): some clear concentration‐dependent inhibition at higher concentration
